Test results reported in patent publication US20100215710A1, “Beta-2 Adrenergic Receptor Agonists and Antagonists and Modulation of Wound Healing” (The Regents of the University of California, priority 2005, published 2010).

What was measured:
human keratinocytes = assay: Immunofluorescent staining of actin and vinculin, keratinocytes (β-AR agonist, OA); format: cell-based
Experimental: Sterile glass cover-slips (Fisher Scientific, Pittsburgh, Pa.) were transferred into 12 well dishes and collagen-coated with 60 μg/ml collagen I in KGM for 1 hour at 37° C. Cover-slips were washed three times with KGM and 3×10^4 cells were added per well and allowed to attach overnight. Cells were untreated, treated with 1 μM β-AR agonist for 15 minutes, OA (10 nM) for 45 minutes, or pre-treated with OA (10 nM) for 30 minutes prior to the addition of 1 μM β-AR agonist for 15 minutes. All steps were performed at room temperature unless otherwise noted. Cover slips were washed twice in PBS and fixed for 10 minutes in 4% paraformaldehyde. Cover-slips were washed twice in PBS between each step. Cells were permeabilized for 5 minutes with 0.1% Triton-X-100/PBS, blocked with 5% goat serum/PBS for 20 minutes, primary monoclonal anti-vinculin antibody (Sigma, St. Louis, Mo.) or anti-phospho-ERK antibody (Cell Signaling Technology, Beverly, Mass.) were added drop-wise in 1% goat serum/PBS (1:100) and incubated for 1 hour at 37° C. A goat anti-mouse cy3 (Jackson labs, West Grove, Pa.) (1:100) antibody was then added in 1% goat serum/PBS for 1 hour at 37° C. Alexa 488-phalloidin (Molecular Probes, Eugene, Oreg.) (1:40) in PBS was added to the vinculin-stained cover-slips for 20 minutes. […]

adult human CECs = assay: Single cell migration assay, adult human corneal epithelial cells; format: cell-based
Experimental: Glass bottomed 35 mm dishes (MatTek Corporation, Ashland, Mass.) were coated with collagen I (60 μg/ml) (Cohesion Technologies, Palo Alto, Calif.) in PBS for 1 hour at 37° C. Adult human CECs were plated at a density of 50 cells/mm^2 for 2 hours at 37° C. Cells were pre-incubated with either CGM alone or CGM containing 100 nM okadaic acid (OA) for 45 minutes at 37° C. Untreated cells were then incubated with CGM alone (control) or with CGM containing either 20 μM β-AR antagonist, 10 nM or 1 μM β-AR agonist. Pre-treated cells were stimulated with 100 nM OA alone or both 10 nM or 1 μM β-AR agonist and 100 nM OA at time 0. The 35 mm glass-bottomed dishes were placed in a heating chamber, designed to maintain the media between 35-37° C., secured to the stage of an inverted Nikon Diaphot microscope. Individual cell migration was monitored over a 1 hour period at 37° C., as described previously (Pullar and Isseroff (2005b) “Cyclic AMP mediates keratinocyte directional migration in an electric field” J Cell Sci 118:2023-2034). […] After each cell's center of mass was tracked using the Open Lab software, migration speed and distance were calculated and imported to Excel (Microsoft Corporation, Redmond, Wash.). […]

C=C1[C@@H](O)[C@@H]2O[C@]3(CC[C@H](/C=C/[C@@H](C)[C@@H]4CC(C)=C[C@@]5(O[C@H](C[C@@](C)(O)C(=O)O)CC[C@H]5O)O4)O3)CC[C@H]2O[C@@H]1[C@@H](O)C[C@H](C)[C@H]1O[C@@]2(CCCCO2)CC[C@H]1C [OA, okadaic acid]
effect on cytoskeletal conformation (human keratinocytes; OA 10 nM alone, 45 minutes): no effect | effect on β2-AR-mediated change in cytoskeletal conformation (human keratinocytes; OA 10 nM pre-treatment prior to 1 μM β-AR agonist): prevents | effect on migration rate (adult human CECs; OA 100 nM alone): no effect | effect on β-AR agonist-mediated decrease in migration rate (adult human CECs; OA 100 nM pre-treatment, then OA plus β-AR agonist): completely prevents
